The values below are quoted from earlier work in US8754219B2, “Compounds that modulate intracellular calcium” (Calcimedica, Inc., priority 2010, dated 2014).

In data set [1] the test system is Jurkat cells.
In data set [2] the test system is colon cancer cells.
For data set [3], the system named is Jurkat cells. This is another data set of the same source.
Data set [4] deals with colon cancer cells. This is another data set of the same source.
Data set [5] has as its target STIM1 and Orai1 in HEK293 cells (Homo sapiens, UniProt Q96D31). Particulars: Orai1 expressed along with STIM1.

Chain of STIM1 and Orai1 in HEK293 cells (Q96D31 whole entry): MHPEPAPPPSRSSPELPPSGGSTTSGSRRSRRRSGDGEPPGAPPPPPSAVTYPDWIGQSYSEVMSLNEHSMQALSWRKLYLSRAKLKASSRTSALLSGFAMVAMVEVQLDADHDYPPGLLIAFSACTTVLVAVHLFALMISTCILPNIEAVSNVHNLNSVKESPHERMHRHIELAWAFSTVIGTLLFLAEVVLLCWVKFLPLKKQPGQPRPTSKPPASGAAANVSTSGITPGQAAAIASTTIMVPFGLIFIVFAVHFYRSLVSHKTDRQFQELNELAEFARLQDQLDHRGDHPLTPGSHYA

Regarding `Cc1nnsc1C(=O)Nc1ccc(-n2nc(C(F)(F)F)cc2C(F)(F)F)cc1` [BTP-2], the inhibition of proliferation entry in the data set with Jurkat cells [1] and with colon cancer cells [2] was “inhibits” each time. In addition, the “inhibition of SOCE” value in the data set on Jurkat cells [3] and in the data set with colon cancer cells [4] was “inhibits” each time.
Take `NCCOB(c1ccccc1)c1ccccc1` [2-aminoethoxydiphenylborate]: the “block of store dependent Ca2+ entry” value in data set [5] was “completely blocked”.
